A word on the IC50: it is the concentration that gives 50% inhibition.

In test [1] the test system is uterus weight of immature mice. The test can be described thus: Effect against the increase in uterus weight of immature mice. It counts as in vivo, female BALB/c mice. Conditions: for Weight of uterus: oral, three days, uteri isolated after four days. As to the method:
The effect against the increase in uterus weight of immature mice
Immature female BALB/c mice, 4 weeks age, were divided into two groups and 50 µg of estradiol was subcutaneously administered to the animals of one group in the chest. The test compounds were repeatedly administered orally to each group (8 animals per group) for three days since the date of estradiol administration. After four days, the uteri were isolated and the weight thereof was measured.
In Table 2, "estradiol (-)" represents an estradiol-untreated group and "estradiol (+)" represents an estradiol-treated group.

The subject of test [2] is Human mammary cancer MCF-7 cell. In words: Human mammary cancer MCF-7 cell growth inhibition test (neutral red). It counts as cell-based. The note with it: MCF7, MCF-7 cells, medium with 10^-8M estradiol, 72 hours, neutral red, absorbance at 550 nm, read-out: IC50. The method, then:
Human mammary cancer MCF-7 cell growth inhibition test
Each 0.1 ml of MCF-7 cells which had been prepared to 5 x 10^4/ml using a medium (referred to as Medium B hereinafter) prepared by adding 10% bovine fetal serum, 10^-8M estradiol (manufactured by Sigma), 100 units/ml penicillin and 100 µg/ml streptomycin to RPMI1640 medium was distributed in each well of 96 well-microtiter plate. […] Supernatant was removed, each 0.1 ml of Medium B containing 0.02% neutral red was added to the residue, the mixture was cultured at 37 °C for 1 hour in a CO2 gas incubator and the cells were stained by neutral red dye. Supernatant was removed and the residue was washed once with a physiological saline. Then, the dye was extracted with 0.001N hydrochloric acid/30% ethanol and the absorbance at 550 nm was determined with a microplatereader.

The test system of test [3] is estrogen-dependent human mammary cancer MCF-7. In words: Antitumor effects against MCF-7 tumor transplanted in nude mice. It is filed as in vivo, female BALB/c-nu/nu mice. The note with it: Mus musculus, MCF7, 5 days per week for two weeks, read-out: T/C. An excerpt:
Antitumor effects against estrogen-dependent human mammary cancer MCF-7
The tumor fragment (2mm x 2mm x 2mm) of human hormone dependent mammary cancer MCF-7 was transplanted subcutaneously in the flank of female BALB/c-nu/nu mice (Nihon Crea), 7 to 9 weeks age. […] 3 to 4 Weeks after transplantation, mice of the tumor volume of 25 to 200 mm^3 were selected, and the test compounds were orally administered repeatedly to the groups (5 animals per group) for 5 days per a week, for total two weeks. In addition, estradiol propionate was administered again on the date of initial administration of the test compounds. Length and width of the tumor were determined every day, and the tumor volumes were calculated by means of ellipsoid approximation according to the following equation: […] [formula] The tumor volume at initial administration (Vo) and on the day of judgement (V) was calculated, and the tumor growth rate (V/Vo) was calculated. T/C value was obtained as the ratio of V/Vo value of treated group relative to that of control group.

In test [4] the test system is estrogen-dependent human mammary cancer Br-10. The test can be described thus: Antitumor effects against Br-10 tumor transplanted in nude mice. It counts as in vivo, female BALB/c-nu/nu mice. Conditions: 5 days per week for two to four weeks. The source says:
Antitumor effects against estrogen-dependent human mammary cancer Br-10
The tumor fragment (2mm x 2mm x 2mm) of human hormone dependent mammary cancer Br-10 was transplanted subcutaneously in the flank of female BALB/c-nu/nu mice (Nihon Crea), 7 to 9 weeks age. […] 3 to 4 Weeks after transplantation, mice the tumor volume of which increased to 30 to 150 mm^3 were selected, and the test compounds were orally administered repeatedly to the groups (5 animals per group) for 5 days per a week, for total two to four weeks. Estradiol propionate was additionally administered on the date of initial administration of the test compounds and 14 days after the administration. Length and breadth of the tumor were determined every day, and the tumor volumes were calculated by means of ellipsoid approximation according to the above equation. The tumor volume at initial administration (Vo) and on the day of judgement (V) was calculated, and the tumor growth rate (V/Vo) was calculated. T/C value was obtained as the ratio of V/Vo value of treated group relative to that of control group.

Consider `Cc1c(F)c(N)c2c(=O)cc(-c3ccc(N)c(F)c3)oc2c1F` [Compound 1, 5-Amino-2-(4-amino-3-fluorophenyl)-6,8-difluoro-7-methyl-4H-1-benzopyran-4-one], for which the Weight of uterus in test [1] (estradiol (+) (50 µg estradiol s.c.), dose 50 mg/kg) was found to be 38 mg; in test [1] (estradiol (-) (estradiol-untreated group), dose 50 mg/kg), 17 mg. In test [2], the IC50 was found to be 13 nM. Also, the response vs control in vivo at 50 mg/kg in test [3] (dose 50 mg/kg oral, judgement day 18) was determined as 6.4%. The compound also displayed a T/C in test [4] (dose 25 mg/kg oral, judgement day 18) of 0.12.
As to `CC/C(=C(\c1ccccc1)c1ccc(OCCN(C)C)cc1)c1ccccc1` [Tamoxifen], the Weight of uterus in test [1] (estradiol (+) (50 µg estradiol s.c.), dose 5 mg/kg) worked out at 47 mg; in test [1] (estradiol (-) (estradiol-untreated group), dose 5 mg/kg), 49 mg. Further, the “anti-estrogenic activity (increase in the uterus weight observed in an estradiol-treated group)” value in test [1] (result in words, estradiol-treated group, oral administration) was “weak anti-estrogenic activity”. In addition, the “weight of the uterus in an estradiol-untreated group” value in test [1] (result in words, estradiol-untreated group) is given as “significantly increases the weight of the uterus”. Moreover, the response vs control in vivo at 5 mg/kg in test [3] (dose 5 mg/kg oral, judgement day 22) is 25%. In test [4] (dose 5 mg/kg oral, judgement day 25), this compound showed a T/C of 0.58.

These data come from patent publication EP0638566B1, “5-Aminoflavone derivatives, their preparation and their use as antibacterial, anti-estrogenic and/or antitumor agent” (KYOWA HAKKO KOGYO CO., LTD., priority 1993, dated 1995).
